Measured values: paper PMC9299640, “Incorporation of β‐Alanine in Cu(II) ATCUN Peptide Complexes Increases ROS Levels, DNA Cleavage and Antiproliferative Activity” (Chemistry (Weinheim an Der Bergstrasse, Germany), 2021)

Assays:
HCT116 cells = test: Cellular uptake of Cu by ICP-MS; assay type: cell-based, human; details: 70 µM, 24 h, 37 °C, 5% CO2, 4 × 10^5 cells/well, HNO3 lysis, corrected for cell-free wells, n = 3
Method: We aimed to correlate the antiproliferative activity to the accumulation of Cu in HCT116 cells. Therefore, cells were treated for 24 h with complexes Cu−GGH, 1, 3, 4 and CuCl2 (70 μM), and the Cu content of the samples was determined by ICP‐MS (Table S13). […] The higher Cu contents probably lead to enhanced oxidative stress levels in cells, which consequently results in higher antiproliferative activity.
The antiproliferative activity of selected Cu(II) ATCUN complexes was investigated towards different tumor cell lines (HCT116, NCI-H460, SiHa and SW480 cells) and expressed as the IC50 values. Additionally, cellular uptake studies in HCT116 tumor cells were carried out and the amount of Cu was determined with inductively coupled plasma mass spectrometry (ICP-MS).
Table S13. […]
with 0.4% sulforhodamine B (Sigma-Aldrich) in 1% acetic acid for 30 min in the dark at room temperature and then washed with 1% acetic acid to remove unbound dye. The stain was dissolved in unbuffered Tris base (10 mM, Serva) for 30 min on a plate shaker in the dark and quantified on a BioTek EL808 microplate reader at an absorbance of 490 nm with a reference wavelength of 450 nm to determine the percentage of cell-growth inhibition by determining the absorbance of each sample relative to a negative (no inhibitor) and a no-growth control (day 0). […]

CT-DNA = test: DNA melting curves by UV/VIS spectroscopy; assay type: binding, calf

## [Cl][Cu][Cl] [CuCl2, reference compound]
HCT116 cells
  accumulated Cu in HCT116: 0.754 ± 0.010 μg/4 × 10^5 cells
CT-DNA; 2.5 µM complex or CuCl2, CT-DNA 50 µM (ref. Tm 78.3 °C), MOPS 50 mM pH 7.4
  ΔTm relative to CT-DNA: 3.2 °C
CT-DNA; 2.5 µM complex or CuCl2, CT-DNA 50 µM, MOPS 50 mM pH 7.4, 260 nm, 0.5 °C/min, Cu(II):peptide 1:1.05
  Tm of CT-DNA after treatment: 81.5 °C
